Laboratory results reported in ChEMBL document CHEMBL1201862, “PubChem BioAssay data set” (2004).
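Interpolation was linear, between the two tested concentrations surrounding the appropriate level; five concentrations were tested over 48 hours in 96-well plates. Abbreviation: GI50, concentration required for 50% inhibition of growth.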 Activity calls are given as the source filed them. No stated cut-off is given here; in the data, active = GI50 up to about 1.1 µM and inactive = higher.

Tests used:
Assay in all cases: inhibition of tumour cell growth, NCI panel, 48 h
CAKI-1 = system: CAKI-1
SK-MEL-28 = system: SK-MEL-28
DU-145 = system: DU-145
HT-29 = system: HT-29
UO-31 = system: UO-31
SR = system: SR
EKVX = system: EKVX
786-0 = system: 786-0
SW-620 = system: SW-620
KM12 = system: KM12
UACC-62 = system: UACC-62
PC-3 = system: PC-3
OVCAR-4 = system: OVCAR-4
Hs-578T = system: Hs-578T
NCI-H23 = system: NCI-H23
HCT-15 = system: HCT-15
SK-MEL-2 = system: SK-MEL-2
HCC 2998 = system: HCC 2998
COLO 205 = system: COLO 205
M14 = system: M14
OVCAR-8 = system: OVCAR-8
SN12C = system: SN12C
K562 = system: K562
TK-10 = system: TK-10
NCI-H226 = system: NCI-H226
MOLT-4 = system: MOLT-4
U-251 = system: U-251
MDA-MB-231 = system: MDA-MB-231
HOP-62 = system: HOP-62
HCT-116 = system: HCT-116
SK-MEL-5 = system: SK-MEL-5
HOP-92 = system: HOP-92
BT-549 = system: BT-549
Malme-3M = system: Malme-3M
RXF 393 = system: RXF 393
A498 = system: A498
T47D = system: T47D
OVCAR-5 = system: OVCAR-5
MDA-N = system: MDA-N
SF-539 = system: SF-539
HL-60 = system: HL-60
A549 = system: A549
LOX IMVI = system: LOX IMVI
MCF7 = system: MCF7
MDA-MB-435 = system: MDA-MB-435
SF-295 = system: SF-295
OVCAR-3 = system: OVCAR-3
IGROV-1 = system: IGROV-1
SF-268 = system: SF-268
SK-OV-3 = system: SK-OV-3
NCI-H522 = system: NCI-H522
CCRF-CEM = system: CCRF-CEM
SNB-75 = system: SNB-75
SNB-19 = system: SNB-19
UACC-257 = system: UACC-257
RPMI-8226 = system: RPMI-8226
ACHN = system: ACHN
NCI-H460 = system: NCI-H460
NCI/ADR-RES = system: NCI/ADR-RES

For `CCN(CC)/[N+]([O-])=N/OCOC(C)=O`, the GI50 (CAKI-1) was > 100 µM (inactive), the GI50 (SK-MEL-28) was > 100 µM (inactive) and the GI50 (DU-145) was > 100 µM (inactive). For the same compound, the GI50 (HT-29) was > 100 µM (inactive), the GI50 (UO-31) was > 100 µM (inactive) and the GI50 (SR) was 43.4 µM (inactive). For the same compound, the GI50 (EKVX) was > 100 µM (inactive), the GI50 (786-0) was > 100 µM (inactive) and the GI50 (SW-620) was > 100 µM (inactive). For the same compound, the GI50 (KM12) was > 100 µM (inactive), the GI50 (UACC-62) was > 100 µM (inactive) and the GI50 (PC-3) was > 100 µM (inactive). The GI50 (OVCAR-4) was > 100 µM (inactive), the GI50 (Hs-578T) was > 100 µM (inactive) and the GI50 (NCI-H23) was > 100 µM (inactive). The GI50 (HCT-15) was over 100 µM, the GI50 (SK-MEL-2) was > 100 µM (inactive) and the GI50 (HCC 2998) was > 100 µM (inactive). The GI50 (COLO 205) was > 100 µM (inactive), the GI50 (M14) was > 100 µM (inactive) and the GI50 (OVCAR-8) was > 100 µM (inactive). For the same compound, the GI50 (SN12C) was > 100 µM (inactive), the GI50 (K562) was > 100 µM (inactive) and the GI50 (TK-10) was > 100 µM (inactive). For the same compound, the GI50 (NCI-H226) was > 100 µM (inactive), the GI50 (MOLT-4) was > 100 µM (inactive) and the GI50 (U-251) was > 100 µM (inactive). For the same compound, the GI50 (MDA-MB-231) was > 100 µM (inactive), the GI50 (HOP-62) was > 100 µM (inactive) and the GI50 (HCT-116) was > 100 µM (inactive). For the same compound, the GI50 (SK-MEL-5) was > 100 µM (inactive), the GI50 (HOP-92) was > 100 µM (inactive) and the GI50 (BT-549) was > 100 µM (inactive). The GI50 (Malme-3M) was > 100 µM (inactive), the GI50 (RXF 393) was > 100 µM (inactive) and the GI50 (A498) was > 100 µM (inactive). For the same compound, the GI50 (T47D) was > 100 µM (inactive), the GI50 (OVCAR-5) was > 100 µM (inactive) and the GI50 (MDA-N) was > 100 µM (inactive). For the same compound, the GI50 (SF-539) was > 100 µM (inactive), the GI50 (HL-60) was 65.9 µM (inactive) and the GI50 (A549) was > 100 µM (inactive). The GI50 (LOX IMVI) was > 100 µM (inactive), the GI50 (MCF7) was > 100 µM (inactive) and the GI50 (MDA-MB-435) was > 100 µM (inactive). For the same compound, the GI50 (SF-295) was > 100 µM (inactive), the GI50 (OVCAR-3) was > 100 µM (inactive) and the GI50 (IGROV-1) was > 100 µM (inactive). The GI50 (SF-268) was > 100 µM (inactive), the GI50 (SK-OV-3) was > 100 µM (inactive) and the GI50 (NCI-H522) was > 100 µM (inactive). For the same compound, the GI50 (CCRF-CEM) was 94.4 µM (inactive), the GI50 (SNB-75) was > 100 µM (inactive) and the GI50 (SNB-19) was > 100 µM (inactive). For the same compound, the GI50 (UACC-257) was > 100 µM (inactive), the GI50 (RPMI-8226) was > 100 µM (inactive) and the GI50 (ACHN) was > 100 µM (inactive). For the same compound, the GI50 (NCI-H460) was > 100 µM (inactive) and the GI50 (NCI/ADR-RES) was > 100 µM (inactive).

With `C=C1C(C(O)C[C@H](C)C2O[C@@]3(CCCCO3)CCC2C)O[C@@H]2CCC3(CCC(/C=C/[C@@H](C)C4CC(C)=CC5(O4)O[C@H](C[C@](C)(O)C(=O)O)CCC5O)O3)OC2[C@@H]1O` (some centres not stated) the GI50 (CAKI-1) was 0.0107 µM (active), the GI50 (SK-MEL-28) was 0.00227 µM (active) and the GI50 (DU-145) was 0.00908 µM (active). For the same compound, the GI50 (HT-29) was 0.00828 µM (active), the GI50 (UO-31) was 0.0527 µM (active) and the GI50 (SR) was 0.00964 µM (active). The GI50 (EKVX) was 0.00614 µM (active), the GI50 (786-0) was 0.00912 µM (active) and the GI50 (SW-620) was 0.0134 µM (active). For the same compound, the GI50 (KM12) was 0.00374 µM (active), the GI50 (UACC-62) was 0.00347 µM (active) and the GI50 (PC-3) was 0.00545 µM (active). The GI50 (OVCAR-4) was 0.0286 µM (active), the GI50 (Hs-578T) was 0.00318 µM (active) and the GI50 (NCI-H23) was 0.00819 µM (active). The GI50 (HCT-15) was under 0.0163 µM, the GI50 (SK-MEL-2) was 0.00253 µM (active) and the GI50 (HCC 2998) was 0.00171 µM (active). The GI50 (COLO 205) was 0.00376 µM (active), the GI50 (M14) was 0.00176 µM (active) and the GI50 (OVCAR-8) was 0.00693 µM (active). The GI50 (SN12C) was 0.0127 µM (active), the GI50 (K562) was 0.00429 µM (active) and the GI50 (TK-10) was 0.0162 µM (active). For the same compound, the GI50 (NCI-H226) was 0.00405 µM (active), the GI50 (MOLT-4) was 0.0122 µM (active) and the GI50 (U-251) was 0.00105 µM (active). The GI50 (MDA-MB-231) was 0.00411 µM (active), the GI50 (HCT-116) was 0.00381 µM (active) and the GI50 (SK-MEL-5) was 0.00308 µM (active). The GI50 (HOP-92) was 0.00375 µM (active), the GI50 (BT-549) was 0.00681 µM (active) and the GI50 (Malme-3M) was 0.000764 µM (active). For the same compound, the GI50 (RXF 393) was 0.018 µM (active), the GI50 (A498) was 0.00564 µM (active) and the GI50 (T47D) was 0.0326 µM (active). For the same compound, the GI50 (OVCAR-5) was 0.00826 µM (active), the GI50 (MDA-N) was 0.00117 µM (active) and the GI50 (SF-539) was 0.00254 µM (active). The GI50 (HL-60) was 0.00408 µM (active), the GI50 (A549) was 0.0267 µM (active) and the GI50 (LOX IMVI) was 0.004 µM (active). For the same compound, the GI50 (MCF7) was 0.0065 µM (active), the GI50 (MDA-MB-435) was 0.00075 µM (active) and the GI50 (SF-295) was 0.00578 µM (active). The GI50 (OVCAR-3) was 0.00239 µM (active), the GI50 (IGROV-1) was 0.0217 µM (active) and the GI50 (SF-268) was 0.00335 µM (active). For the same compound, the GI50 (SK-OV-3) was 0.00955 µM (active), the GI50 (NCI-H522) was 0.00182 µM (active) and the GI50 (CCRF-CEM) was 0.00826 µM (active). The GI50 (SNB-75) was 0.000608 µM (active), the GI50 (SNB-19) was 0.0027 µM (active) and the GI50 (UACC-257) was 0.00839 µM (active). For the same compound, the GI50 (RPMI-8226) was 0.00315 µM (active), the GI50 (ACHN) was 0.0191 µM (active) and the GI50 (NCI-H460) was 0.00408 µM (active). The GI50 (NCI/ADR-RES) was 0.128 µM (active).
